Values of other authors, collected in patent EP1526849B1 (A. MENARINI INDUSTRIE FARMACEUTICHE RIUNITE S.R.L., priority 2002, dated 2004).

Details: gel with benzofenone-3 1%; 8 hours solar light; JP60155111 example 1

percentage of ketoprofen not broken down: 90%
SMILES: CC(C(=O)O)c1cccc(C(=O)c2ccccc2)c1 (stereo not shown) [ketoprofen]
